# Reference: US4628062A, “1,4-naphthoquinone derivatives having anti-inflammatory action” (priority 1983, dated 1986)
# Where two headings read alike, the source gives them in different places.
# What was measured:
# [1] = test system: oedema induced by carrageenan in the rat paw; experiment: inhibition of carrageenan-induced oedema in the rat paw (Winter et al., modified); type: in vivo; details: po, read-out: % inhibition of carrageenan oedema at 2.5 mg/kg orally
# [2] = molecular target: T1, cyclooxygenase (Mus musculus, UniProt P22437); experiment: inhibition of arachidonic acid metabolism via the cyclooxygenase route (Brune et al.); type: biochemical; details: read-out: % inhibition of cyclooxygenase at 1 × 10^-5 mol/l
# T1 construct: endogenous in cells
# T1 sequence (P22437 27-602): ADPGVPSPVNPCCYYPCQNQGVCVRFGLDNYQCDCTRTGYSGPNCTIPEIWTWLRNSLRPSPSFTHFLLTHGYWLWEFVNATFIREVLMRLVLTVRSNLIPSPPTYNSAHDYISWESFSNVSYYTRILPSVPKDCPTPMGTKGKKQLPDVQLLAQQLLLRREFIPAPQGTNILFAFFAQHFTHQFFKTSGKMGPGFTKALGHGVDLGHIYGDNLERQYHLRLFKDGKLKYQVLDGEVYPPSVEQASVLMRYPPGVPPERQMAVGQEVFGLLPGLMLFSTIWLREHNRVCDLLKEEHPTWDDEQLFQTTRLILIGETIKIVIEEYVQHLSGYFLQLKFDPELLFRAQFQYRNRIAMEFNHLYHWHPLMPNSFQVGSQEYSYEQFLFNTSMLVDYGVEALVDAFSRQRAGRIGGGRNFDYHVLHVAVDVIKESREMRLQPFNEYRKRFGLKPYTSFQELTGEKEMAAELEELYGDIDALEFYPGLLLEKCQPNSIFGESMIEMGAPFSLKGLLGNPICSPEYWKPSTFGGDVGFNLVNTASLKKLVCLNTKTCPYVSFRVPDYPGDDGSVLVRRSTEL
# [3] = molecular target: T2, lipoxygenase (Rattus norvegicus, UniProt P12527); experiment: inhibition of arachidonic acid metabolism via the lipoxygenase route: LTB4 release from PMN of the rat after stimulation with Ca ionophor, reverse phase HPLC; type: cell-based; details: read-out: % inhibition of lipoxygenase at 1 × 10^-5 mol/l
# T2 construct: release of LTB4 from neutrophilic granulocytes (PMN) of the rat; endogenous in cells; host or cells: rat neutrophilic granulocytes (PMN)
# T2 sequence (P12527 1-673): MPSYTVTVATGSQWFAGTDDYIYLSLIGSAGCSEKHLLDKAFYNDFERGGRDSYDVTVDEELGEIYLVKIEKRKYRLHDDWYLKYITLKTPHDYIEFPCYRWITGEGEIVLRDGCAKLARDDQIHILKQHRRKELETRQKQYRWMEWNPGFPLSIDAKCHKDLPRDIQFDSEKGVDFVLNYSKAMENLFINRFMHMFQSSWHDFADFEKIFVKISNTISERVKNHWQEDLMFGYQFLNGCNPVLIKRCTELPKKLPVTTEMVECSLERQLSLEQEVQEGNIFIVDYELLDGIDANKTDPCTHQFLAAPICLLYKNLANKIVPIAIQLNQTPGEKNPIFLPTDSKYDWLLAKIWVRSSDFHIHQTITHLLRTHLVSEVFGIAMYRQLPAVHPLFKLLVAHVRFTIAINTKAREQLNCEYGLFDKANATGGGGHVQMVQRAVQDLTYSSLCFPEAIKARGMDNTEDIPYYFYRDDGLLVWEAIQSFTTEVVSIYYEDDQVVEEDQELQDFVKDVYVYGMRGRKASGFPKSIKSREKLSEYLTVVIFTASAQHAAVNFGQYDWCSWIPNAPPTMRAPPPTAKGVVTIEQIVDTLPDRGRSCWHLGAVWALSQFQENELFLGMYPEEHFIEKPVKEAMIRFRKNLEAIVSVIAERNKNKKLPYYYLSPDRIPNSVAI
# [4] = test system: PMN; experiment: inhibition of aggregation of PMN stimulated by LTB4 (Cunningham et al.); type: cell-based; details: 1 × 10^-4 mol/l
# [5] = rat paw, 2.5 mg/kg orally, λ-carrageenan 0.25% suspension in physiological saline
# [6] = 1 × 10^-5 mol/l, LTB4 release from rat PMN, Ca ionophor
SMILES,inhibition at 10 µM [2] [%],"inhibition at 10 µM [3, 6] [%]","inhibition in vivo at 2.5 mg/kg [1, 5] [%]",inhibition at 100 µM [4] [%],inhibition in vivo at 2.5 mg/kg ([1]; Rattus norvegicus) [%],inhibition at 10 µM [3] [%]
O=C(CSC1=C(SCC(=O)NCCO)C(=O)c2ccccc2C1=O)NCCO [Compound 11],50,80,45,36,,
CC1=C(SCC(=O)NC(C)C)C(=O)c2ccccc2C1=O [Compound 10],89,100,45,95,,
"C=CCNC1=CC(=O)c2cc(S(N)(=O)=O)ccc2C1=O [Compound 12, 2-Allylamino-6-sulphamoyl-1,4-naphthoquinone]",38,100,39,72,,
O=C1C=C(O)C(=O)c2ccccc21 [Compound 1],31,,,,34,70
"CCC(=O)NC1=C(OCCOC)C(=O)c2ccccc2C1=O [Compound 13, 2-Propionylamino-3-(2-methoxyethoxy)-1,4-naphthoquinone]",,100,48,,,
NC1=CC(=O)c2ccccc2C1=O [Compound 5],55,,,,48,100
NC1=CC(=O)c2cc(S(N)(=O)=O)ccc2C1=O [Compound 6],65,100,39,77,,

# The next lines start with results.
inhibition at 10 µM [2] [%],"inhibition at 10 µM [3, 6] [%]",SMILES,"inhibition in vivo at 2.5 mg/kg [1, 5] [%]",inhibition at 100 µM [4] [%],inhibition in vivo at 2.5 mg/kg ([1]; Rattus norvegicus) [%],inhibition at 10 µM [3] [%]
89,100,CNC(=O)CSC1=C(C)C(=O)c2ccccc2C1=O [Compound 9],25,100,,
65,100,CC(=O)NC1=CC(=O)c2ccccc2C1=O [Compound 7],32,49,,
45,100,COCCOC1=CC(=O)c2ccccc2C1=O [Compound 3],38,,,
78,98,COC1=CC(=O)c2ccccc2C1=O [Compound 2],29,76,,
37,100,COC1=C(OC)C(=O)c2ccccc2C1=O [Compound 4],36,79,,
72,100,CC1=C(SCC(=O)O)C(=O)c2ccccc2C1=O [Compound 8],41,34,,
,100,"CCOC1=C(NC(C)=O)C(=O)c2ccccc2C1=O [Compound 14, 2-Acetylamino-3-ethoxy-1,4-naphthoquinone]",49,,,
